{"source": "patent US11071721B2", "about": "“Bicyclic amide compounds and methods of use thereof” (Genentech, Inc., priority 2016, dated 2021)", "data": [{"target": "human RIP1 kinase domain (2-375) (Homo sapiens (Human), UniProt Q13546)", "sequence (Q13546 2-375)": "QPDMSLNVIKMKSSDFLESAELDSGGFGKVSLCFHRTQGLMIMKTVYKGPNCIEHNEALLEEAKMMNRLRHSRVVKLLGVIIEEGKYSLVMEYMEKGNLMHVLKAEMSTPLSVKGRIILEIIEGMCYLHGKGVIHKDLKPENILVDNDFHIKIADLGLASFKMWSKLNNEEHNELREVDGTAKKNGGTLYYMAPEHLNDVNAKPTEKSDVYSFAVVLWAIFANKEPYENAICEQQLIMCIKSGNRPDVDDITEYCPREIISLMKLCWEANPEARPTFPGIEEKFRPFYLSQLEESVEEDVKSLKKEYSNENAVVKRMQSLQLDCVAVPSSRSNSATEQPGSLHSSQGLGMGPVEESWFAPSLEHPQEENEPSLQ", "assay": "RIP1 kinase inhibition assay (Transcreener ADP biochemical enzyme assay)", "conditions": "Ki app (Morrison tight-binding fit); 50 nM enzyme, 50 uM ATP, 2 hours incubation, fluorescence polarization", "how_it_was_run": "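Baculovirus-expressed human RIP1 kinase domain (2-375), 50 nM, incubated 2 h with compound in pH 7.5 Hepes with 30 mM MgCl2, 1 mM DTT, 50 uM ATP, 0.5% DMSO. ADP detected by Transcreener fluorescence polarization (antibody/AlexaFluor 633 tracer displacement). Ki^app from Morrison tight-binding fit of fractional activity.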", "units": {"Ki": "nM"}, "values": [{"smiles": "O=C(c1nc2n(n1)CCOC2c1ccccc1F)N1CC(F)(F)C1", "note": "(racemic) [Example 6, (3,3-difluoroazetidin-1-yl)-[8-(2-fluorophenyl)-6,8-dihydro-5H-[1,2,4]triazolo[5,1-c][1,4]oxazin-2-yl]methanone]", "Ki": 722}, {"smiles": "O=C(c1nc2n(n1)[C@@H](c1ccccc1)CC2(F)F)N1CC(F)C1", "note": "(single isomer, unassigned) [Example 48]", "Ki": 71}, {"smiles": "O=C(c1nc2n(n1)[C@H](c1ccccc1)C[C@@H]2F)N1CC(C(F)(F)F)C1", "note": "(racemic) [Example 50, [rac-(5S,7S)-7-fluoro-5-phenyl-6,7-dihydro-5H-pyrrolo[1,2-b][1,2,4]triazol-2-yl]-[3-(trifluoromethyl)azetidin-1-yl]methanone]", "Ki": 1600}, {"smiles": "CCC(F)(F)C1CCc2nc(C(=O)N3CC(F)(F)C3)nn21", "note": "(racemic) [Example 40, (3,3-difluoroazetidin-1-yl)-[5-(1,1-difluoropropyl)-6,7-dihydro-5H-pyrrolo[1,2-b][1,2,4]triazol-2-yl]methanone]", "Ki": 920}, {"smiles": "O=C(c1nc2n(n1)[C@@H](c1ccccc1)C[C@H]2F)N1CCC(F)(F)C1", "note": "(stereo in doubt) [Example 54, (3,3-difluoropyrrolidin-1-yl)-[rac-(5R,7R)-7-fluoro-5-phenyl-6,7-dihydro-5H-pyrrolo [1,2-b][1,2,4]triazol-2-yl]methanone]", "Ki": 11}, {"smiles": "O=C(c1nc2n(n1)[C@H](c1ccccc1)C[C@@H]2F)N1CCc2ccncc2C1", "note": "(racemic) [Example 88, 3,4-dihydro-1H-2,7-naphthyridin-2-yl-[rac-(5S,7S)-7-fluoro-5-phenyl-6,7-dihydro-5H-pyrrolo[1,2-b][1,2,4]triazol-2-yl]methanone]", "Ki": 54}, {"smiles": "O=C(c1nc2n(n1)[C@H](c1ccccc1)C[C@@H]2F)N1CCn2nccc2C1", "note": "(stereo in doubt) [Example 69, 6,7-dihydro-4H-pyrazolo[1,5-a]pyrazin-5-yl-[rac-(5S,7S)-7-fluoro-5-phenyl-6,7-dihydro-5H-pyrrolo[1,2-b][1,2,4]triazol-2-yl]methanone]", "Ki": 52}, {"smiles": "O=C(c1nc2n(n1)[C@@H](c1ccccc1)C[C@H]2F)N1CCC[C@@H]1C(F)F", "note": "(single isomer, unassigned) [Example 65]", "Ki": 36}, {"smiles": "O=C(c1nc2n(n1)[C@H](c1ccccc1)C[C@@H]2F)N1CC(F)(F)CC1CO", "note": "(mixture of isomers) [Example 72, [4,4-difluoro-2-(hydroxymethyl)pyrrolodin-1-yl]-[rac-(5S,7S)-7-fluoro-5-phenyl-6,7-dihydro-5H-pyrrolo[1,2-b] [1,2,4]triazol-2-yl]methanone]", "Ki": 3900}, {"smiles": "O=C(c1nc2n(n1)[C@H](c1ccccc1)C[C@@H]2F)N1CCC1C(F)F", "note": "(mixture of isomers) [Example 60, [2-(difluoromethyl)azetidin-1-yl]-[rac-(5S,7S)-7-fluoro-5-phenyl-6,7-dihydro-5H-pyrrolo[1,2-b][1,2,4]triazol-2-yl]methanone]", "Ki": 17}, {"smiles": "O=C(c1nc2n(n1)[C@H](c1ccccc1)C[C@@H]2F)N1CCCC1C(F)F", "note": "(mixture of isomers) [Example 78, [2-(difluoromethyl)pyrrolidin-1-yl]-[rac-(5S, 7S)-7-fluoro-5-phenyl-6,7-dihydro-5H-pyrrolo[1,2-b][1,2,4]triazol-2-yl]methanone]", "Ki": 60}, {"smiles": "O=C(c1nc2n(n1)[C@@H](c1ccccc1)C[C@H]2F)N1CCC1", "note": "(racemic) [Example 104, azetidin-1-yl-[rac-(5R,7R)-7-fluoro-5-phenyl-6,7-dihydro-5H-pyrrolo [1,2-b][1,2,4]triazol-2-yl]methanone]", "Ki": 31}, {"smiles": "O=C(c1nc2n(n1)[C@H](c1ccccc1)C[C@@H]2F)N1CC[C@@H]1C(F)F", "note": "(racemic) [Example 53, [rac-(2R)-2-(difluoromethyl)azetidin-1-yl]-[rac-(5S,7S)-7-fluoro-5-phenyl-6,7-dihydro-5H-pyrrolo[1,2-b][1,2,4]triazol-2-yl]methanone]", "Ki": 9}]}]}
